Measured values as given in patent publication US8748575B2, “Therapeutic peptides” (Combimab, Inc., priority 2010, dated 2014).

How the values were obtained:
GC-C = biological target: T1, GC-C (Mus musculus, UniProt Q3UWA6); experiment: Intestinal membrane 125I-STa competitive radioligand binding assay; design: key to I-125 binding assay: 1+ (lowest activity/potency); ++: Results are graded from 1+ (lowest activity/potency) to 5+ (highest activity/potency); +++: Results are graded from 1+ (lowest activity/potency) to 5+ (highest activity/potency); ++++: Results are graded from 1+ (lowest activity/potency) to 5+ (highest activity/potency); +++++: 5+ (highest activity/potency); settings: for I-125 binding assay: graded activity/potency, mouse intestinal membranes
T1 construct: freshly prepared mouse intestine membranes; from tissue; host or cells: mouse intestine (membrane preparation)
T1 sequence (Q3UWA6 20-1072): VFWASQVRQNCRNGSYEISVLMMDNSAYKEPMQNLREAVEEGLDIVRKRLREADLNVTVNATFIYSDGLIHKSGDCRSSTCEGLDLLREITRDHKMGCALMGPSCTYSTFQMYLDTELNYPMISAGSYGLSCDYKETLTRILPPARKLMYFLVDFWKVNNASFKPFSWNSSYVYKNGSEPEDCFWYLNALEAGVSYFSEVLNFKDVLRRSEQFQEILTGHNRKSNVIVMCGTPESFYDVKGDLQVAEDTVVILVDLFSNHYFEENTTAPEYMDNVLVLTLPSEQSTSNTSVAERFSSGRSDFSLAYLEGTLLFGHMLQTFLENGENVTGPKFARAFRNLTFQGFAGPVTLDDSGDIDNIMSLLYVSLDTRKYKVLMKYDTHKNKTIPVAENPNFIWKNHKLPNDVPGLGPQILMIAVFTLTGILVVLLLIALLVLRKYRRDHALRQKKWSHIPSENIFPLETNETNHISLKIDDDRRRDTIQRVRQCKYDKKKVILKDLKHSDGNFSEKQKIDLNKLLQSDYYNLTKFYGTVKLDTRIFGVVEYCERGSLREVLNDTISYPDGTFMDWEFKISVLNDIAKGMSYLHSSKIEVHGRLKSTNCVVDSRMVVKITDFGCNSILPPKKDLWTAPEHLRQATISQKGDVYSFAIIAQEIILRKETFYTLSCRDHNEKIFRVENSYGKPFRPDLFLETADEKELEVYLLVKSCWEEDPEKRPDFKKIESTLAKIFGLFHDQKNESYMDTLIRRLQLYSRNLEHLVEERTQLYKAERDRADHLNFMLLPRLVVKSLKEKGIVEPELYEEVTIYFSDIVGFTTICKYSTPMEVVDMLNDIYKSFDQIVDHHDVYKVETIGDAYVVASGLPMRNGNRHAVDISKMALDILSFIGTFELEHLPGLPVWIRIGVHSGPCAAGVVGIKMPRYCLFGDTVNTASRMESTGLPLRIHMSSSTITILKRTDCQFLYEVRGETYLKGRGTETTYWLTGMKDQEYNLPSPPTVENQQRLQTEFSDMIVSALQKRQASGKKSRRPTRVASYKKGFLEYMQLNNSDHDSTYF
Description: Intestinal membrane 1-125 labeled radioligand binding assay. The intestinal membrane radioligand binding assay was used to assess whether a novel compound could displace ^125I-STa from GC-C (Crane et al., 1992). Each analog was analyzed for its ability to displace ^125I-STa from GC-C in a competitive binding assay. ^125I-ST Displaced” was determined by co-incubating STa analogs (10 μM) with 50,000 DPM of ^125I-STa (1-18) in the presence of mouse intestinal membranes. The displacement (n=3) for each analog was determined relative to a vehicle control.
Membranes were prepared from freshly harvested mouse intestines by first washing away the blood or feces with ice-cold Dulbecco's PBS. Washed organs were minced with a single-edged razor blade, followed by homogenization on ice in 50 mM Tris, pH 7.6, containing 1 mM EDTA, 1 mM PMSF, 1 mM DTT. Debris was then removed by a 15 minute centrifugation at 3,000×G and 4° C. The supernatant is then passed through successively smaller needles (18 gauge through 25 gauge) and frozen at −70° C. until used as a tissue homogenate. If intended for use as isolated membranes, the above homogenate was centrifuged (100,000×G) at 4° C. for 1 hour while fresh and the pellet was re-suspended in homogenization buffer.
The assay was performed in 96 well filter plates which were pre-incubated overnight with 200 μl of 0.3% polyethylenimine (w/v) and washed three times by aspiration with 300 μl of Wash Buffer (150 mM NaCl, 20 mM Sodium Phosphate pH=7.2, 1 mM EDTA) immediately before use. Into each well of was added 50 μl of 3× Binding buffer (150 mM Tris-HCl pH=7.6, 1.98 mM Cysteamine, 0.3% Bacitracin, 1350 mM NaCl, 3 mM EDTA), 40 μl of double-distilled water, 10 μl of either double-distilled water or cold ligand (50 uM STa (5-18) in double-distilled water), 10 μl of increasing concentrations (125 DPM/ul to 50,000 DPM/ul) of radiolabeled 125I -STa (1-18) and finally 40 μl (approximately 2 mg protein/ml) of freshly prepared mouse intestine membranes. The plates were then incubated with mixing at 37 C for two hr, washed successively with six 200 μl aliquots of Wash Buffer and aspirated to dryness. The filter bottoms of each well were punched into individual borosilicate tubes and bound radioactivity determined in a gamma counter. Protein content was determined on an aliquot of the mouse intestine membranes used in the Biorad Protein Assay.

T84 cells (GC-C) = experiment: Intact T84 cell cGMP accumulation assay; type: cell-based, Human; design: key to CGMP accumulation assay: 1+ (lowest activity/potency); ++: Results are graded from 1+ (lowest activity/potency) to 5+ (highest activity/potency); +++: Results are graded from 1+ (lowest activity/potency) to 5+ (highest activity/potency); ++++: Results are graded from 1+ (lowest activity/potency) to 5+ (highest activity/potency); +++++: 5+ (highest activity/potency); settings: for CGMP accumulation assay: graded activity/potency, T84 cells; for activity in the cGMP accumulation assay: FIG. 22, compared to STa peptide
Description: The intact T84 cell assay was used to detect the accumulation of cGMP, the product of agonism, upon interaction with a compound (Visweswariah et al., 1992). Human colorectal adenocarcinoma T84 cells were grown to confluence in a 24 well plate using DMEM/F12 medium supplemented with 10% FBS. The media was aspirated from each well and the cells were washed three times with Dulbecco's PBS (1×, no Ca2+ or Mg2+). The cells were then incubated for 30 minutes at 37° C. with 1 mM […] (IBMX) in Optimem medium (no FBS), either with or without potential antagonists. After incubation under these conditions, a 10× concentrated stock of a known GC-C agonist (e.g., STa (5-18)) in PBS was added to each well and the incubation continued for an additional 15 min at 37° C.
The reaction was stopped by the addition of 200 μL of Passive Lysis Buffer (Promega) to each well. The supernatant was removed for cGMP quantitation by RIA using ^125I-labeled cGMP 54 antibody relative to an external cGMP standard curve. The cells were scraped from the surface for protein content determination using a BioRad Protein Assay.

[1] = Mouse intestinal secretion assay (suckling mouse assay); type: in vivo; design: key to Mouse intestinal secretion assay (suckling mouse): 1+ (lowest activity/potency); ++: Results are graded from 1+ (lowest activity/potency) to 5+ (highest activity/potency); +++: Results are graded from 1+ (lowest activity/potency) to 5+ (highest activity/potency); ++++: Results are graded from 1+ (lowest activity/potency) to 5+ (highest activity/potency); +++++: 5+ (highest activity/potency); settings: for Mouse intestinal secretion assay (suckling mouse): graded activity/potency
Description: A relevant disease model is the suckling mouse model in which STa (5-18) is deposited into the stomach of 3-4 day old mice, and the accumulation of fluid in their intestines is determined gravimetrically (Parkinson et al., 1994). All GCC peptides were formulated to the desired concentration in Dulbecco's PBS (1×, No Ca++, no Mg++) containing […] immediately prior to dosing. Proteinase inhibitors were prepared as stock solutions in PBS and added to dosing solutions by serial dilution, as needed. The dosing solution (50 μL) was delivered into the stomachs of 2-4 day old mice (3 per dosing group) using a plastic tube attached to the needle of a 1 mL tuberculin syringe. After 3 hours, the animals were sacrificed and dissected to determine the individual weights of the intestines and the rest of the carcass, respectively.

[2] = FIG. 20, compared to ST peptide
[3] = FIG. 21, compared to linaclotide

Substance	activity in the I-125 labeled radioligand binding assay (GC-C; FIG. 18, compared to STa)	I-125 binding assay (GC-C)	CGMP accumulation assay (T84 cells (GC-C))	activity in the cGMP accumulation assay (T84 cells (GC-C); second experiment)	activity in the mouse intestinal secretion assay ([1]; FIG. 26, compared to STa)	Mouse intestinal secretion assay (suckling mouse) [1]	activity in the I-125 labeled radioligand binding assay (GC-C; [2])	activity in the I-125 labeled radioligand binding assay (GC-C; [3])	activity in the I-125 labeled radioligand binding assay (GC-C; FIG. 19, compared to linaclotide)	activity in the cGMP accumulation assay (T84 cells (GC-C))	activity in the mouse intestinal secretion assay ([1]; FIG. 24, compared to linaclotide)	activity in the mouse intestinal secretion assay ([1]; FIG. 25, compared to STa peptide)
H2N Cys Cys Glu L-Thr Cys Cys Asn Pro Ala Cys Ala Gly Cys Tyr COOH (H-CCETCCNPACAGCY-OH; not fully specified (bridges); printed as Cys Cys Glu Thr Cys Cys Asn Pro Ala Cys Ala Gly Cys Tyr; cysteine pairing not given here) [Peptide B]	activity comparable to STa	++++	+++	lower than the STa peptide	lower activity	+++	–	–	–	–	–	–
H2N Cys Cys Glu Leu Cys Cys Asn HyPro Ala Cys Ala Gly Cys Tyr COOH (CCELCCNXACAGCY; not fully specified; non-natural hydroxy residue; Modified Amino Acid (8)..(8): Xaa8 = HyPro = Hydroxy-Proline, Hyp, Hydroxyproline) [Peptide C]	–	++	+++	lower than the STa peptide	–	–	comparable to ST peptide	lower than linaclotide	–	–	–	–
H2N Cys Cys Glu Leu Cys Cys Asn Thz Ala Cys Ala Gly Cys Tyr COOH (CCELCCNXACAGCY; not fully specified; non-natural residue Thz; Modified Amino Acid (8)..(8): Xaa8 = Thz = Thiazolidine (4-thiazolidine-2-carboxylic acid), Tzd) [Peptide D]	–	+++++	+++++	higher than the STa peptide	higher activity than STa	+++++	superior to ST peptide	–	–	–	–	–
H2N Cys Cys Glu Leu Cys Cys Asn Dhp Ala Cys Ala Gly Cys Tyr COOH (CCELCCNXACAGCY; not fully specified; non-natural residue Dhp; Modified Amino Acid (8)..(8): Xaa8 = Dhp = 3,4,-dihydro-Proline, D-Pro 3,4-Dehydroproline) [Peptide A]	better activity than STa	+++++	+++++	higher than the STa peptide	higher activity than STa	+++++	superior to ST peptide	superior to linaclotide	superior activity compared to linaclotide	higher than the STa peptide	better activity than linaclotide	higher activity than the STa peptide
